The text below walks through data of US20080220416A1, “Compositions for Inhibiting Cell Growth and Inducing Apoptosis in Cancer Cells and Methods of Use Thereof” (THE BOARD OF TRUSTEES OF THE UNIVERSITY OF ILLINOI, priority 2004, published 2008).

Square brackets hold non-standard residues; d marks the D form. Peptide text beside a SMILES is read from it. * marks the point of attachment. Nle = CCCC[C@H](N)C(=O)O; Cbz = O=C(OCc1ccccc1)*

The test system of one experiment is Notch-1. Nature of the experiment: Notch Western blot in MDA-MB231 cells. It is filed as cell-based, human. The procedure: Notch silencing was confirmed by Western blot using commercial goat polyclonal antibodies from Santa Cruz Biotechnology to Notch-1 (C-20, Cat# sc-6014 S) and Notch-4 (C-19, Cat# sc-8644). Total cell lysates were prepared as follows: cells grown on 6 cm dishes were scraped in lysis buffer containing 1×PBS, 1% Nonidet P40, 0.5% deoxycholate, 0.1% SDS, freshly added aprotinin (45 μg/ml), phenylmethylsulfonyl fluoride (10 μg/ml), and sodium orthovanadate (10 μM). Lysates were sonicated 4 times for 5 seconds each, followed by 30 minutes incubation on ice. Lysates were centrifuged at 10,000 g for 20 minutes at 4° C. Supernatants were used as total cell lysates. Nuclear extracts were prepared as follows: 10,000,000 cells were pelleted, washed, and quickly frozen in a dry ice bath. Pellets were thawed by adding 100 μl of buffer 1 (10 mM HEPES, pH 7.9, 10 mM KCl, 1.5 mM MgCl2, 1 mM DTT). Nuclei were pelleted and lysed in 15 μl Buffer 2 (20 mM HEPES, pH7.9, 0.4 M NaCl, 1.5 mM MgCl2, 25% glycerol, 0.2 mM EDTA, 1 mM DTT, and 0.5 mM PMSF). Lysates were diluted in 50-70 μl Buffer 3 (20 mM HEPES, pH 7.9, 50 mM KCl, 20% glycerol, 0.2 mM EDTA, 1 mM DTT, 0.5 mM PMSF). Protein concentrations were estimated using the BCA protein assay (Pierce). Supernatants were boiled in reducing SDS sample buffer (Novex). Twenty μg protein per lane were run on a 3-8% Tris acetate gel (Invitrogen) in Tris Acetate Reducing Running Buffer (Novex). Protein bands were transferred onto PVDF membranes (BioRad) using transfer buffer (Novex). Membranes were then blocked overnight at 4° C. in 2% blocking solution in TBS (Roche). Primary antibodies were diluted in 2% Boehringer blocking solution (total volume 5 ml). Membranes were incubated for one hour at room temperature with shaking, then washed 6 times for 10 minutes each in TBS wash buffer. Membranes were incubated in secondary antibody in 2% of blocking solution for 30 minutes, then washed 6 times for 10 minutes each at RT in wash buffer. Bands were detected with chemiluminescent reagent (Roche) according to the manufacturer's directions. […]

A further experiment relates to NOXA. Nature of the experiment: Western blot of NOXA after proteasome inhibitors in normal melanocytes. The format is cell-based, human. Particulars: 18 hrs. From the text:
A panel of melanoma cells were used to assess the effect of bortezomib on pro-apoptotic proteins. RJ002L, C8161, MUM2B and SK-MeI-28 melanoma cells, as well as two normal melanocyte cultures (MC-010 and MC-012) were examined. Prior to testing, the RJ002L melanoma cell lines were maintained in RPMI supplemented with 10% FBS. Late passage melanoma cell lines (C8161, MUM2B and SK-Me1028) were utilized as previously described (Welch D et al., 1991, Int J Cancer 47:227-237; Bittner M et al., 2000, Nature 406:536-540). Normal human melanocytes were isolated from neonatal foreskins and cultured as previously described (Qin J et al., 2004, Mol Cancer Ther 3:895-902). Proliferating cells were examined by Western blot analysis before and after 18 hrs of exposure to bortezomib (1 μM). Antibodies were obtained as follows: Bad (SC-8044), Bcl-2 (SC-7382), Bcl-xL (SC-634), Mcl-1 (SC-819), Bak (SC-832) from Santa Cruz Biotechnology (Santa Cruz, Calif.); NOXA (OP180) from Calbiochem; Bid, Bim and PUMA from Cell Signaling (Beverly, Mass.); BAX from Upstate (Charlottesville, Va.); and β-actin from ICN (Irvine, Calif.). For the Western blot analysis, whole cell extracts were prepared as previously described (Denning M et al., 1998, J Biol Chem 273:29995-30002). Briefly, cells were harvested by scraping monolayers and washed with PBS. Cell pellets were resuspended in CHAPS buffers containing a protease inhibitor cocktail. Extracts were vigorously shaken at 4° C. for 15 min followed by centrifugation. Supernatants were collected and protein concentration determined using Bio-Rad reagent. Thirty to 50 microgram protein samples were resolved by SDS-polyacrylamide gel electrophoresis and transferred to polyvinylidene difluoride membrane by electroblotting. Membranes were probed with the various primary antibodies overnight at 4° C., followed by detection using ECL reagents (Amersham Pharmacia Biotech, Piscataway, N.J.) according to manufacturer's instructions.
Two other proteasome inhibitors, lactasytsin and MG-132, were tested for the ability to induce NOXA in melanoma cells and melanocytes. […]
Background: Immunoblotting shows a protein as a band on a membrane.

Turning to “5′-AAGTGTCTGAGGCCAGCAAGA-3′ [Notch-1 siRNA]”, the “expression of Notch-1 and Notch-4” value in the experiment on Notch-1 (MDA-MB231 / HMEC, data not shown) is “strongly inhibited the expression of both Notch-1 and -4”.

In the case of `CC(C)C[C@@H](C=O)NC(=O)[C@H](CC(C)C)NC(=O)[C@H](CC(C)C)NC(=O)OCc1ccccc1` [MG-132, benzoxycarbonyl-Leucyl-Leucyl-Leucyl-aldehyde] (Cbz-Leu-Leu-Leu-aldehyde), in the experiment with NOXA (MC-004, MC-005, MC-006, MC-008, 1 μM or 10 μM), the NOXA induction result is on record as “no induction of NOXA in any of the normal melanocytes”.

For the compound `CC(C)C[C@H](NC(=O)[C@H](Cc1ccccc1)NC(=O)c1cnccn1)B(O)O` [bortezomib, N-(2-pyrazine)carbonyl-L-phenylalanine-L-leucine boronic acid], in the experiment with NOXA (MC-010, MC-012, 1 μM), the NOXA induction result is given as “did not exhibit NOXA induction”.

On to `CCCC[C@@H](C=O)NC(=O)[C@H](CC(C)C)NC(=O)[C@H](CC(C)C)NC(=O)OCc1ccccc1` [z-Leu-Leu-Nle-CHO, N-benzyloxycarbonyl-leucyl-leucyl-norleucinal] (Cbz-Leu-Leu-[Nle]-aldehyde), for which, in the experiment with Notch-1 (MDA-MB231, 0.5, 1 or 2 μM, 24 h, virtually complete at 2 μM), the “N^IC and N^TM levels” value is “dose-dependent decrease in N^IC and relative accumulation of N^TM”.
